From US20250082700A1, “METHODS AND COMPOSITIONS OF TREATING BIOLFILM-RELATED DISEASES” (UNIVERSITY OF ROCHESTER, priority 2022, published 2025)
Ends that are not written are not given here.

How the values were obtained:
[1] = system: S. mutans from 1 representative S-ECC child; assay: Inhibition of S. mutans clinical isolate by plantaricin (MIC); format: cell-based, Streptococcus mutans; settings: clear culture plated, additional 48 hours
Procedure: (§1) Bacteriocins, antimicrobial molecules, produced by L. plantarum are known as plantaricins. Peptide plantaricin-149 (acetate) powers (Creative Peptides, Shirley, USA) were dissolved in ddH2O to prepare plantaricin solutions. S. mutans (3.6×10^3 CFU/ml) and C. albicans (3.1×10^1 CFU/ml) from 1 representative S-ECC child were selected and treated with the plantaricin with a range of concentration (0-400 μg/ml). The mixtures of plantaricin with S. mutans or C. albicans were grown for 24 hours in TSBYE with 1% glucose in 96-well plates. Clear culture after 24 hours' incubation indicated no growth of microorganisms. Therefore, the minimal inhibition concentration (MIC) of plantaricin-149 was defined as the lowest concentration that inhibited the growth of S. mutans and C. albicans.
(§2) S. mutans (3.6×10^3 CFU/ml) and C. albicans (3.1×10^1 CFU/ml) were treated by the plantaricin ranging from 0-400 ng/ml respectively, and grew for 24 h in 1% glucose condition. The MIC of plantaricin was 400 ng/ml for S. mutans and 200 ng/ml for C. albicans. The clear culture was plated and incubated for additional 48 hours.

[2] = system: C. albicans from 1 representative S-ECC child; assay: Inhibition of C. albicans clinical isolate by plantaricin (MIC); format: cell-based, Candida albicans; settings: clear culture plated, additional 48 hours
Procedure: as §1, §2

Question: What does the source list for YSLQMGATAIKQVKKLFKKKGG [plantaricin]?
Answer: nature of inhibitory effect on S. mutans [1]: bacteriostatic; nature of inhibitory effect on C. albicans [2]: fungistatic
